Source: US20120178666A1 (SHIRE LLC, priority 2009, published 2012)

Tests used:
[1] = Prodrug stability in simulated intestinal fluid (USP); conditions: 37° C.
Description: (§1) The remaining concentrations of the prodrugs were then assayed by HPLC.

[2] = Prodrug stability in simulated gastric fluid (USP); conditions: 37° C.
Description: as §1

| % prodrug remaining following incubation for: 2 h in simulated intestinal fluid pH 6.8 [1] [%] | % prodrug remaining following incubation for: 1 h in simulated gastric fluid pH 1.1 [2] [%] | SMILES |
| --- | --- | --- |
| 100 | 92 | CC[C@H](C)[C@H](N)C(=O)NCCOC(=O)NC(=N)NC(=O)Cc1c(Cl)cccc1Cl [Compound 59, Guanfacine (ethanolamine-(S)-Isoleucine) Carbamate] |
| 97 | 81 | N=C(NC(=O)CC[C@H](NC(=O)c1ccc(C(=O)O)cc1)C(=O)O)NC(=O)Cc1c(Cl)cccc1Cl [Compound 60, Terephthalic acid-(S)-γ-Glutamate(Guanfacine) Amide] |
| 93 | 88 | N=C(NC(=O)Cc1c(Cl)cccc1Cl)NC(=O)OC[C@H](NC(=O)CCN)C(=O)O [Compound 64, β-Alanine-(S)-Serine (Guanfacine) Carbamate] |
| 99 | 90 | N=C(NC(=O)Cc1c(Cl)cccc1Cl)NC(=O)OCC[C@H](N)C(=O)O [Compound 65, (S)-Homoserine Guanfacine Carbamate] |
| 97 | 99 | N=C(NC(=O)Cc1c(Cl)cccc1Cl)NC(=O)OCC[C@H](NC(=O)CCN)C(=O)O [Compound 67, β-Alanine-(S)-Homoserine (Guanfacine) Carbamate] |
| 75 | 86 | CC(C)(COC(=O)NC(=N)NC(=O)Cc1c(Cl)cccc1Cl)[C@@H](O)C(=O)NCCC(=O)O [Compound 68, Guanfacine Pantothenic acid Carbamate] |
| 96 | 85 | CC(C)(CO)[C@@H](O)C(=O)NCCCOC(=O)NC(=N)NC(=O)Cc1c(Cl)cccc1Cl [Compound 69, Guanfacine Panthenol Carbamate] |
| 93 | 64 | N=C(NC(=O)CC[C@H](NC(=O)c1ccc(N)cc1)C(=O)O)NC(=O)Cc1c(Cl)cccc1Cl [Compound 70, Guanfacine PABA-(S)-Glutamate (Guanfacine) Amide] |
| 89 | 91 | CNCC(=O)NCCOC(=O)NC(=N)NC(=O)Cc1c(Cl)cccc1Cl [Compound 71, Guanfacine ethanolamine-Sarcosine Carbamate] |

The remaining lines, values behind:

| SMILES | % prodrug remaining following incubation for: 2 h in simulated intestinal fluid pH 6.8 [1] [%] | % prodrug remaining following incubation for: 1 h in simulated gastric fluid pH 1.1 [2] [%] |
| --- | --- | --- |
| CC(C)[C@@H](N)C(=O)N[C@H](CCC(=O)NC(=N)NC(=O)Cc1c(Cl)cccc1Cl)C(=O)O [Compound 31, (R)-Valine-(R)-γ-Glutamate(Guanfacine) Amide] | 85 | 70 |
| CC(C)[C@H](N)C(=O)N[C@H](CCC(=O)NC(=N)NC(=O)Cc1c(Cl)cccc1Cl)C(=O)O [Compound 32, (S)-Valine-(R)-γ-Glutamate (Guanfacine) Amide] | 84 | 93 |
| CC(C)[C@H](NC(=O)CC(C)(C)CC(=O)NC(=N)NC(=O)Cc1c(Cl)cccc1Cl)C(=O)O [Compound 33, Guanfacine 3,3 dimethylglutaryl (Valine) Amide] | 99 | 79 |
| O=C1CCN=C(NC(=O)Cc2c(Cl)cccc2Cl)N1 [Compound 34, Guanfacine β Alanine Cyclic adduct] | 91 | 51 |
| NC(=O)CC[C@@H]1N=C(NC(=O)Cc2c(Cl)cccc2Cl)NC1=O [Compound 38, Guanfacine-(S)-Glutamine Cyclic adduct] | 87 | 70 |
| CC(C)C[C@@H](N)C(=O)N[C@@H](CCC(=O)NC(=N)NC(=O)Cc1c(Cl)cccc1Cl)C(=O)O [Compound 42, (R)-Leucine-(S)-γ-Glutamate(Guanfacine) Amide] | 83 | 70 |
| N=C(NC(=O)CC[C@H](NC(=O)[C@H](N)CCCCN)C(=O)O)NC(=O)Cc1c(Cl)cccc1Cl [Compound 43, Guanfacine-(S)-γ-Glutamate-(R)-Lysine Amide] | 85 | 62 |
| CSCC[C@@H](N)C(=O)N[C@@H](CCC(=O)NC(=N)NC(=O)Cc1c(Cl)cccc1Cl)C(=O)O [Compound 44, (R)-Methionine-(S)-γ-Glutamate(Guanfacine) Amide] | 85 | 75 |
| N=C(NC(=O)CC[C@H](NC(=O)[C@H](N)Cc1ccc(O)cc1)C(=O)O)NC(=O)Cc1c(Cl)cccc1Cl [Compound 45, Guanfacine-(S)-γ-Glutamate-(R)-Tyrosine Amide] | 91 | 74 |
| N=C(NC(=O)CC[C@H](NC(=O)[C@H](N)CCC(N)=O)C(=O)O)NC(=O)Cc1c(Cl)cccc1Cl [Compound 46, (R)-Glutamine-(S)-γ-Glutamate(Guanfacine) Amide] | 81 | 61 |
| N=C(NC(=O)CC[C@H](NC(=O)[C@H](N)CO)C(=O)O)NC(=O)Cc1c(Cl)cccc1Cl [Compound 47, (R)-Serine-(S)-γ-Glutamate(Guanfacine) Amide] | 89 | 72 |
| CCC(C)[C@@H](N)C(=O)NCCCC(=O)NC(=N)NC(=O)Cc1c(Cl)cccc1Cl (stereo partly drawn) [Compound 50, Guanfacine (GABA-(R)-Isoleucine) Amide] | 81 | 85 |
| N=C(NC(=O)Cc1c(Cl)cccc1Cl)NC(=O)c1ccc(N)cc1 [Compound 52, Guanfacine PABA Amide] | 97 | 84 |
| CC(C)[C@@H](N)C(=O)N[C@@H](C(=O)NC(=N)NC(=O)Cc1c(Cl)cccc1Cl)C(C)C [Compound 54, Guanfacine (R)-Valine-(R)-Valine Amide] | 66 | 73 |
| CC(C)[C@@H](NC(=O)c1ccc(N)cc1)C(=O)NC(=N)NC(=O)Cc1c(Cl)cccc1Cl [Compound 55, Guanfacine (R)-Valine-PABA Amide] | 91 | 65 |
| N=C(NC(=O)Cc1c(Cl)cccc1Cl)NC(=O)OCCNC(=O)CC[C@H](N)C(=O)O [Compound 58, Guanfacine (ethanolamine-(S)-γ-Glutamate) Carbamate] | 99 | 96 |
